Test results published in patent US20260183286A1, “Compositions and Methods for an Oral Supplement to Oral Minoxidil for the Treatment of Alopecia” (FOLLEA INTERNATIONAL, priority 2023, published 2026).

Tested on: SLC22A9
Assay: Placebo controlled study of ammonium chloride oral supplement: SLC22A9 expression from hair follicles
Type: in vivo
Conditions: 268 mg ammonium chloride oral supplement daily for 5 days; measured at baseline and day 5; 10 subjects active vs 10 placebo; p=0.01
Experimental: A placebo controlled study was conducted with a 268 mg ammonium chloride oral supplement to ascertain increase in SLC22A9 up-regulation. Ten subjects were administered the placebo and 10 subjects were administered ammonium chloride daily for 5 days. The SLC22A9 expression from hair follicles was measured at baseline and day 5. SLC22A9 increased 3 folds and was statistically significant p=0.01 increased in the active vs placebo group.

SMILES: Cl.N [ammonium chloride]
- SLC22A9 expression from hair follicles, increase: 3 folds
